Positions of bridges follow the written chain, without caps; N, C: chain ends. Non-standard residues stand in square brackets, D forms with d. Residues, ends and D or L forms follow the SMILES beside them. Chains are numbered I, II in the order given. βAla = NCCC(=O)O
Assays:
Sprague Dawley rats [1] = assay: Four-week toxicity study with 2-week recovery in rats: mortality, clinical signs, body weight; format: in vivo, rat; conditions: for weight loss of euthanized animal: 15 mg/kg/day
Experimental: (§1) The purpose of this study was to evaluate the toxic effects of SET-M33 when administered intravenously to Sprague Dawley rats for 4 weeks. Recovery was evaluated during a 14-day drug-free period. The peptide was administered once a day at three dose levels at 5, 9 and 15 mg/kg/day, and the control group was treated with the vehicle (ten males and ten females per group which were sacrificed after 4 weeks for clinical and necroscopy analyses; five males and five females for the control and 15 mg/kg/day groups which were sacrificed after the 2 weeks recovery period). The higher dose was selected on the basis of the DRF study (above) in which evident toxicity was recorded at the dose of 20 mg/kg. The efficacy dose in mouse is 5 mg/kg[24]. The lowest dose of this test is approximately twice the equivalent efficacy dose in rat (using body surface area) and the intermediate dose is approximately the geometric mean of the other two.
One male died on day 8 and one male and one female were euthanized for animal welfare reasons on days 6 and 10 of the recovery period, respectively, after showing various clinical signs (hunched back, abnormal gait and pallor) and weight loss of 14% and 11%, respectively. SET-M33-related effects consisting of decreased motor activity, irregular breathing, piloerection, closed or partially closed eyelids, abnormal gait and hunched back were recorded in animals treated at 15 mg/kg/day just after administration for the whole treatment period (as in the DRF study above). […] Among animals that had to be sacrificed for welfare reasons, abnormal gait, partially closed eyelids (the male) and decreased motor activity and piloerection (the female) were also recorded from day 3 onwards. […] During the recovery period, body-weight loss (between 2 and 14% based on individual values) was recorded in some animals dosed at 15 mg/kg/day.
Viability/mortality was monitored twice daily throughout the study. Detailed clinical signs were evaluated once at pre-test, once/twice daily during the treatment period and on days 1, 8, 10 to 14 of the recovery period. […]

Sprague Dawley rats [2] = assay: Four-week toxicity study in rats: clinical biochemistry and urinalysis; format: in vivo, rat; conditions: mean ± SD
Experimental: as §1
Blood samples were collected into lithium heparin tubes. The following parameters were determined using a Cobas 6000 Analyzer (Roche): glucose (Gluc), urea (Urea), creatinine (Creat), bilirubin, total (Bili), cholesterol, total (Chol), triglycerides (Trig), aspartate aminotransferase (AST), alanine aminotransferase (ALT), alkaline phosphatase (ALP), creatine kinase (CK), gamma-glutamyl-transferase (gGT), calcium (Ca), inorganic phosphorus (Phos), sodium (Na), potassium (K), chloride (Cl), albumin (Alb), globulin (calculated from total protein and Alb%) (Glob), total protein (Total Prot), album/globulin ratio (A/G ratio).
Urine was collected overnight into specimen vials (animals were placed in metabolism cages at the end of the working day preceding the day of urine collection). The following parameters were determined using a Cobas u 411 semi-automated test strip analyser (Roche): specific gravity (SG1), protein (Prot), ketones (Keto), volume (Vol), creatinine (U-Creat), bilirubin (Bili), colour (Col), glucose (U-Gluc), erythrocytes (U-RBC), appearance (App), nitrite (Nite), pH, leukocytes (U-WBC).

`CC[C@H](C)[C@H](NC(=O)[C@H](CCCCN)NC(=O)[C@@H](N)CCCCN)C(=O)N[C@@H](CCCNC(=N)N)C(=O)N[C@H](C(=O)N[C@@H](CCCNC(=N)N)C(=O)N[C@@H](CC(C)C)C(=O)N[C@@H](CO)C(=O)N[C@@H](C)C(=O)NCCCC[C@H](NC(=O)[C@H](C)NC(=O)[C@H](CO)NC(=O)[C@H](CC(C)C)NC(=O)[C@H](CCCNC(=N)N)NC(=O)[C@@H](NC(=O)[C@H](CCCNC(=N)N)NC(=O)[C@@H](NC(=O)[C@H](CCCCN)NC(=O)[C@@H](N)CCCCN)[C@@H](C)CC)C(C)C)C(=O)NCCCC[C@H](NC(=O)[C@H](CCCCNC(=O)[C@H](C)NC(=O)[C@H](CO)NC(=O)[C@H](CC(C)C)NC(=O)[C@H](CCCNC(=N)N)NC(=O)[C@@H](NC(=O)[C@H](CCCNC(=N)N)NC(=O)[C@@H](NC(=O)[C@H](CCCCN)NC(=O)[C@@H](N)CCCCN)[C@@H](C)CC)C(C)C)NC(=O)[C@H](C)NC(=O)[C@H](CO)NC(=O)[C@H](CC(C)C)NC(=O)[C@H](CCCNC(=N)N)NC(=O)[C@@H](NC(=O)[C@H](CCCNC(=N)N)NC(=O)[C@@H](NC(=O)[C@H](CCCCN)NC(=O)[C@@H](N)CCCCN)[C@@H](C)CC)C(C)C)C(=O)NCCC(=O)O)C(C)C` [SET-M33] (I: H-KKIRVRLSAKK[βAla]-OH / II: H-KKIRVRLSAK / III: H-KKIRVRLSA / IV: H-KKIRVRLSA; amide I:10-IV:C, I:11-II:C, II:10-III:C (inferred); N-terminus and C-terminus assumed) was tested, and the “weight loss of euthanized animal” value (Sprague Dawley rats [1]; one female rat, euthanized day 10 of recovery) was 11%, the “weight loss of euthanized animal” value (Sprague Dawley rats [1]; one male rat, euthanized day 6 of recovery) was 14% and the mortality (Sprague Dawley rats [1]; rats, 5, 9 and 15 mg/kg/day iv 4 weeks + 2-week recovery) was “Mortality was only recorded at 15 mg/kg/day”. For the same compound, the “Phos, inorganic phosphorus” value (Sprague Dawley rats [2]; female rats, 9 mg/kg/day iv, week 4 of treatment) was 1.49 ± 0.415 mmol/L, the “Phos, inorganic phosphorus” value (Sprague Dawley rats [2]; female rats, 15 mg/kg/day iv 4 weeks, week 2 of recovery) was 2.04 ± 0.616 mmol/L and the “Phos, inorganic phosphorus” value (Sprague Dawley rats [2]; male rats, 5 mg/kg/day iv, week 4 of treatment) was 1.97 ± 0.309 mmol/L. The “Phos, inorganic phosphorus” value (Sprague Dawley rats [2]; male rats, 9 mg/kg/day iv, week 4 of treatment) was 2.26 ± 0.393 mmol/L and the “Phos, inorganic phosphorus” value (Sprague Dawley rats [2]; male rats, 15 mg/kg/day iv 4 weeks, week 2 of recovery) was 2.83 ± 1.37 mmol/L.
